This is an account of results in article PMC5077133, “Towards Development of Small Molecule Lipid II Inhibitors as Novel Antibiotics” (PLoS ONE, 2016).

Several values for one entry are separate records, joined by “and”; a condition that tells them apart may be missing. Equal entries are not always repeated.

The nature of data set [1]: Tolerability in mice (maximum tolerated dose, clinical observations). As to conditions: C57BL/6J, mouse, in vivo, ip, 100 mg/kg, intraperitoneal, read-out: Dose safely administered intraperitoneally (preliminary maximum tolerated dose studies).
The nature of data set [2]: Cytotoxicity against mammalian cells (MTS assay). The class given is cell-based. The settings on record: human, HeLa cells (ATCC CCL-2.2). The procedure, abridged: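 HeLa cells exposed 72 h in RPMI1640 to compounds at 64 to 0.125 μg/ml, in triplicate. Viability measured as mitochondrial activity by MTS, and CC50 taken against a standard curve of serially diluted untreated cells.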
For orientation: Tetrazolium assays rely on reduction of a dye to a coloured formazan, in cell work by metabolically active cells.

The subject of another data set is E. faecium EF1509 (VRE). The experiment in a line: Antibacterial activity (MIC, broth dilution). As to conditions: CLSI, in µg/mL. The class given is cell-based. The method, then: (§1) Determination of the Minimal Inhibitory Concentrations (MIC) by dilution was carried out by broth dilution according to CLSI standards.
The next data set relates to P. aeruginosa ATCC 27853. The experiment in a line: Antibacterial activity (MIC, broth dilution). The class given is cell-based. The settings on record: CLSI. How it is done: as §1
On the technique in general: Broth dilution looks for growth in wells or tubes with falling amounts of substance.

A further data set has as its system E. faecium F118 (VRE). Nature of the data set: Antibacterial activity (MIC, broth dilution). The class given is cell-based. As to conditions: CLSI, in µg/mL. How it is done: as §1
Data set [3] can be described thus: Solubility in water (laser nephelometry). The class given is physicochemical. As to conditions: n=3. The method, then:
Solubility in water was determined using a NEPHELOstar^plus laser nephelometer (BMG Labtech, Cary, NC) at a wavelength of 635 nm and bottom read optics using a 96-well plate format. A solution of 6jc48-1 was prepared at a concentration of 2.5 mg/ml in DMSO. The DMSO solution (10 μl) was added to wells containing water (290 μl) for a final concentration of 125 μg/ml. The plate was incubated at room temperature for two hours prior to reading in the nephalometer. All samples were run in triplicate. Control samples (DMSO with no analyte) were prepared and run in parallel.

For data set [4], the system named is Enterococcus faecalis EF1509. The experiment in a line: Murine peritoneal sepsis model. As to conditions: 6jc48-1 100 mg/kg, ampicillin 300 mg/kg. The class given is in vivo, C57BL/6J mice. The text has this: Care of the mice met or exceeded the standards set forth by the National Institute of Health Guide for the care and use of laboratory animals and the AVMA panel on Euthanasia. All procedures in this study have been approved by the Institutional Animal Care and Use Committee (IACUC) at the University of Maryland Baltimore School of Medicine (Protocol number 02122005). Adult C57BL/6J mice (~18 grams, 8–10 weeks old) were used for all experiments. Mice were obtained from the Jackson Laboratory (Bar Harbor, Maine, USA) and housed in the IHV SPC animal core facility. Mice were fed standard chow (Harlan Laboratories) and water ad libitum. […] Infected animals (n = 5) were subsequently treated by intraperitoneal injection 30 min post-infection with 100 mg/kg of compound in 300 μL sterile saline solution, 5% Tween 80, 10% DMSO (V/V), ampicillin (300mg/kg), or vehicle (sterile saline solution, 5% Tween 80, 10% DMSO (V/V)) as positive and negative controls, respectively. Animals were closely observed during a period of 24 h and mice that show signs of severe sepsis were humanely euthanized. Mice were anesthetized by intraperitoneal injection of ketamine (80-100mg/kg) and xylazine (10–15 mg/kg). Once sedated, blood was collected by cardiac puncture. Immediately after blood collection the mice were euthanized by cervical dislocation. Spleens were harvested aseptically, weighed and homogenized in 500 μl of sterile saline solution using an IKA T10 basic disperser (IKA, Wilmington NC). Spleen homogenates were serially diluted and plated onto BHI agar plates. Bacterial counts were determined following 24 h incubation at 37°C and expressed as CFU per gram for spleen.
We established a murine model for sepsis to evaluate the efficacy of 6jc48-1 as an antibiotic agent in vivo. […] Based on the data obtained in the pharmacokinetic analysis, mice (n = 5) were inoculated intraperitoneally with E. faecalis EF1509 (~5 x 10^8 CFU/ animal) and treated after 30 min with compound 6jc48-1 (100 mg/kg IP), ampicillin (300 mg/kg IP) or vehicle. Animals were monitored for survival and after 24 h spleen samples were collected and analyzed for the presence of bacteria. Bacterial counts were determined by plating serial dilutions on BHI agar plates and compared to control treatment with ampicillin as measures of efficacy (Fig 5).

Data set [5] in a line: Liver microsome stability. The class given is in vitro ADME. As to conditions: human liver microsomes, pH 7.4, 1h 37 °C. How it is done: The in vitro microsome stability assay was performed using human liver microsomes and a Biomek FXP liquid handling workstation to deliver reagents to a 96 deep well plate on a shaking peltier with temperature controls. Human liver microsomes were purchased from Corning®. The test compound was incubated in an aqueous reaction mixture (200 ul total volume) consisting of human liver microsomes (150 mixed donor pool) and NADPH Regenerating System Solutions A and B (Corning®) in the presence of 100 mM potassium phosphate buffer (pH 7.4). The NADPH solution A comprises nicotinamide adenine dinucleotide phosphate (NADP+) and glucose 6-phosphate and solution B contains glucose-6-phosphate dehydrogenase. Solutions A and B were combined prior to adding to the reaction plate to generate a supply of NADPH. The NADPH was added last to simultaneously initiate the reactions. The final concentration of the test compound was 10 uM and the microsomal protein concentration was 0.5 mg/ml. After incubation at 37°C, the reaction was terminated at 0, 5, 10, 20, 30, 40, 50 and 60 minutes, respectively, by the addition of 600 uL of acetonitrile. Three replicates were run for each time point. The quenched reaction plate was centrifuged at 4500 rpm for 10 minutes. The supernatant was diluted 1:2 in 30% Methanol in water for LC/MS/MS analyses to monitor substrate depletion. Water was substituted for NADPH for the zero time-point samples. A control plate, without NADPH cofactor, was completed on the same day, using the same conditions.
The half-life (t1/2) was obtained using the equation below: t1/2=−0.693/slope
Where slope is the slope of the line formed by ln(% remaining test compound) vs. time. The in vitro intrinsic clearance (CLint) value was calculated using equation: CLint=(0.693/t1/2)(incubation volume(ul)/total microsomal protein(mg))
(Microsomes from liver hold many membrane-bound enzymes, among them those of drug oxidation.)

Details of data set [6]: method as in PMID 25987836. As to conditions: IV, parent compound for comparison; cited from earlier work.

With `CN(C)c1ccc(/C=C/c2cc(-c3ccc(Br)cc3)cc(-c3ccc(Br)cc3)[o+]2)cc1` [6jc48-1], the MTD in data set [1] was no less than 100 mg/kg. Besides, the CC50 (as a rule, the concentration at which the toxic effect on the cells reaches its halfway point) at 72 h in data set [2] is greater than 100 µg/mL. The “Antibacterial activity (MIC) E. faecium EF1509 (VRE)” value in the data set with E. faecium EF1509 (VRE) is 2.828. Moreover, the Antibacterial activity (MIC) P. aeruginosa ATCC 27853 with P. aeruginosa ATCC 27853 was no less than 64 µg/mL. Moreover, the “Antibacterial activity (MIC) E. faecium F118 (VRE)” value in the data set with E. faecium F118 (VRE) was found to be 5.657. Besides, in data set [3], the solubility (usually the concentration that dissolves in the medium under given conditions) at 2 h was greater than 50 µg/mL. In addition, the “Bacterial counts in spleen” value in data set [4] (IP treatment 30 min post-infection, spleen collected after 24 h) is listed as “significant bacterial clearance”. Moreover, the “Survival of infected animals” value in data set [4] (n = 5, IP treatment 30 min post-infection, length of the experiment (24 h)) is listed as “Four out of five”. In addition, the half-life (in general, the time in which the quantity being followed falls by half) at 10 uM in [5] (read-out: Liver microsome stability Half-life) was greater than 60 min. In data set [5] (read-out: Liver microsome stability clearance), the microsomal CLint at 10 uM was less than 23 µL/min/mg.

As for `CN1/C(=C/C=C/c2cc(-c3ccccc3)cc(-c3ccccc3)[o+]2)C(C)(C)c2ccccc21` [BAS-00127538, (1-Methyl-2,4-diphenyl-6-((1E,3E)-3-(1,3,3-trimethylindolin-2-ylidene)prop-1-en-1-yl)pyryl-1-ium) tetrafluoroborate, reference compound], in data set [6], the AUCInf is 27.9 ng·h/mL, the AUClast is 26.9 ng·h/mL, the Cl_obs was 711 mL/min/kg and the Cmax (commonly the peak of the concentration-time curve) is 101 ng/mL. In [6], the T1/2 is 13.2 min and 13.6 min; the Vss_obs was 12.2 L/kg.
